{"source": "paper PMC8333425", "about": "“Discovery of a dual Ras and ARF6 inhibitor from a GPCR endocytosis screen” (Nature Communications, 2021)", "key": {"[1]": {"system": "β-arrestin2 recruitment to AT1R", "test": "BRET recruitment of β-arrestin2 to AT1R", "assay_type": "cell-based, human", "conditions": "for AngII-promoted BRET, β-arrestin2 (Barr2) recruitment to AT1R: Comp 21 50 μM, individual experiments", "description": "HEK293SL cells were seeded at a density of 7.5 × 10^5 cells per 100-mm dish and 24 h later, transiently transfected as such. For receptor internalization experiments, cells were transfected with 0.12 μg AT1R-RlucII, B2R-RlucII, or β2AR-RlucII and 0.48 μg of either rGFP-CAAX (to assess removal from the PM) or rGFP-FYVE (to assess accumulation in the endosomes). For β-arrestin recruitment assays, cells were transfected with 0.48 μg of receptor-YFP along with 0.12 μg of β-arrestin-RlucII. For β-arrestin/AP-2 binding experiments, cells were transfected with 1 μg Flag-AT1R, 1 μg β2-Adaptin-YFP, and 0.12 μg β-arrestin2-RlucII. For G protein activation, cells were transfected with 3 μg of sp-Flag-AT1R along with either 4.5 μg of the Gαq-polycistronic BRET sensor or 0.24 μg of the Gαi3-RlucII and 0.6 μg of GFP10-Gγ2 and Gβ1 sensors or 0.12 μg PKN-RBD-RlucII and 0.48 μg of rGFP-CAAX. For PKC activation, cells were transfected with 3 μg of sp-Flag-AT1R and 0.18 μg of the PKC sensor. For GTPase activation experiments, cells were transfected with 1 μg Flag-AT1R, 0.48 μg of rGFP-CAAX, and either 0.12 μg of GGA3-PBD-RlucII, PAK-CRIB-RlucII or Raf-RBD-RlucII. For biosensor validation experiments, cells were additionally transfected with 500 ng Flag-K-Ras-WT, Flag-K-Ras-G12V, Flag-K-Ras-SOS-CAAX, HA-ARF6-WT, HA-ARF6-T27N, Myc-Rac1-WT, Myc-Rac1-Q61L or Myc-Rac1-T17N. For PI3K/Akt activation experiments, cells were transfected with 0.48 μg of rGFP-CAAX and 0.12 μg of Akt (PH)-RlucII. After 18 h of transfection, the media was replaced and cells were divided for subsequent experiments. Cells were detached and seeded onto poly-L-ornithine-coated 96-well flat white bottom plates (BrandTech Scientific) at a density of 2.5 × 10^4 cells per well in media. The next day, cells were washed once with Tyrode’s buffer (140 mM NaCl, 2.7 mM KCl, 1 mM CaCl2, 12 mM NaHCO3, 5.6 mM D-glucose, 0.5 mM MgCl2, 0.37 mM NaH2PO4, 25 mM HEPES, pH 7.4) and left in Tyrode’s buffer. For kinetics of β-arrestin recruitment or β-arrestin binding to receptor and AP-2 experiments, cells were serum starved for 30 min, pretreated with 21 (50 µM) or Barbadin (100 µM) for 30 min, stimulated with 100 nM AngII or 1 µM BK and BRET signals were monitored at indicated times using a Victor X Light plate reader (PerkinElmer). Coelenterazine H (final concentration of 5 µM) was added 3–5 min prior to BRET measurements. Filter set was 460/80 nm and 535/30 nm for detecting the RlucII Renilla luciferase (donor) and YFP (acceptor) light emissions, respectively. The BRET ratio was determined by calculating the ratio of the light emitted by YFP over the light emitted by the RlucII. For G protein activation, cells were serum starved, pretreated with compounds for 30 min, stimulated with 100 nM AngII for 2 min (Gαq, Gαi3, and Rho sensors) or 5 min (PKC sensor). For the kinetics of GTPase and PI3K/Akt activation, cells were serum starved, pretreated with 21 (50 µM) or Wortmannin (200 nM) for 30 min, stimulated with ligand (100 nM AngII or 100 ng/ml EGF) and BRET signals were monitored at indicated times. For concentration-response curves, cells were serum-starved, pretreated with various concentrations of compounds for 30 min and stimulated with ligand (100 nM AngII, 1 µM BK, 10 µM Isoproterenol (Iso) or 100 ng/ml EGF) in Tyrode’s buffer for 30 min for receptor internalization, 10 min for ARF6, 2 min for Rac and Rho activation and 5 min for Ras activation and PI3K/Akt activation. BRET signals were monitored using a Synergy2 (BioTek) microplate reader and coelenterazine 400a (final concentrations of 5 µM) added 3–5 min prior to BRET measurements. Filter set was 410/80 nm and 515/30 nm for detecting the RlucII Renilla luciferase (donor) and rGFP/GFP10 (acceptor) light emissions, respectively. The BRET ratio was determined by calculating the ratio of the light emitted by rGFP/GFP10 over the light emitted by the RlucII."}, "A549 cells": {"system": "A549 cells", "test": "Cell viability assay (MTT), A549", "assay_type": "cell-based, human", "description": "MDA-MB-231 breast cancer cells and A549 lung carcinomas (1500 cells in 150 μl/well) were seeded overnight on a clear 96-well plate. Twenty-four hours later, the cells were treated with 0.1% DMSO, or different concentrations of Rasarfin (as indicated), or 10 µM of 21.4, 21.8 (MDA-MB-231 breast cancer cells) or Doxorubicin for the indicated times at 37 °C. At each time point, 10 μl of 5 mg/ml MTT was added to each well and the plates were incubated for an additional 4 h at 37 °C. The absorbance at 590 nm was measured by plate reader. Experiments were done in triplicate and repeated three times."}}, "note": "Where “and” joins values, the source holds several entries; their conditions need not be identical. Equal values may be shown once."}
{"smiles": "CC(C)C(=O)N1CCN(c2ccc(NC(=O)c3cc4ccccc4o3)cc2Cl)CC1", "note": "[Compound 21]", "values": [{"measurement": "β-arrestin2 recruitment to AT1R at the PM", "setting": "[1]; 50 μM", "result": "did not preclude"}, {"measurement": "AngII-promoted BRET, β-arrestin2 (Barr2) recruitment to AT1R", "setting": "[1]; time 0 min", "result": 0}, {"measurement": "AngII-promoted BRET, β-arrestin2 (Barr2) recruitment to AT1R", "setting": "[1]; time 5 min", "result": "0.1545 and 0.1824 and 0.1119"}, {"measurement": "AngII-promoted BRET, β-arrestin2 (Barr2) recruitment to AT1R", "setting": "[1]; time 10 min", "result": "0.1572 and 0.2061 and 0.1651"}, {"measurement": "AngII-promoted BRET, β-arrestin2 (Barr2) recruitment to AT1R", "setting": "[1]; time 15 min", "result": "0.1598 and 0.2035 and 0.1848"}, {"measurement": "AngII-promoted BRET, β-arrestin2 (Barr2) recruitment to AT1R", "setting": "[1]; time 30 min", "result": "0.165 and 0.1904 and 0.1659"}, {"measurement": "AngII-promoted BRET, β-arrestin2 (Barr2) recruitment to AT1R", "setting": "[1]; time 60 min", "result": "0.1705 and 0.209 and 0.1941"}, {"measurement": "A549 cell viability (MTT), compared with MDA-MB-231 cells", "setting": "A549 cells; 10 µM of Rasarfin", "result": "more important cell viability effects"}, {"measurement": "cell viability (MTT signal)", "setting": "A549 cells; Rasarfin 0.5, 24h", "result": "0.2876 and 0.2844 and 0.2473 and 0.4073 and 0.3734 and 0.2713"}, {"measurement": "cell viability (MTT signal)", "setting": "A549 cells; Rasarfin 1, 24h", "result": "0.2899 and 0.2749 and 0.2483 and 0.4128 and 0.3694 and 0.3709"}, {"measurement": "cell viability (MTT signal)", "setting": "A549 cells; Rasarfin 2, 24h", "result": "0.2852 and 0.2865 and 0.2518 and 0.3946 and 0.3796 and 0.386"}, {"measurement": "cell viability (MTT signal)", "setting": "A549 cells; Rasarfin 5, 24h", "result": "0.2638 and 0.2592 and 0.2504 and 0.3187 and 0.2743 and 0.3116"}, {"measurement": "cell viability (MTT signal)", "setting": "A549 cells; Rasarfin 10, 24h", "result": "0.2447 and 0.2619 and 0.2276 and 0.2701 and 0.2102 and 0.246"}, {"measurement": "cell viability (MTT signal)", "setting": "A549 cells; Rasarfin 10, 72h", "result": "0.3944 and 0.2496 and 0.4081 and 0.2999 and 0.3697 and 0.3945"}]}
